Measured values published in patent publication US20070093520A1, “Method of treatment of diarrhea-predominant irritable bowel syndrome in a subject” (priority 2005, published 2007).

Tested on: diarrhea-predominant IBS subjects
Assay: 3007 Study: open-label 52-week safety study, adverse events and withdrawals
[1] = Cilansetron 2 mg/Cilansetron 2 mg
[2] = Cilansetron 2 mg/Cilansetron 2 mg, N=257
[3] = Cilansetron 2 mg/Cilansetron 2 mg, N=257, % of appropriate gender
[4] = Cilansetron 2 mg/Cilansetron 2 mg, gender-specific

Cc1nccn1C[C@H]1CCc2c(c3cccc4c3n2CCC4)C1=O [cilansetron, (R)-(−)-4,5,6,8,9,10-hexahydro-10-[(2-methyl-1H-imidazol-1-yl)methyl]-11H-pyrido-[3,2,1-jk]-carbazol-11-one]
TEAE: Upper Limb Fractures and Dislocations [1]: 0 n (%)
TEAE: Upper Respiratory Tract Infection NOS [1]: 18 (7%) n (%)
TEAE: Upper Respiratory Tract Infections - Pathogen Class Unspecified [1]: 42 (16%) n (%)
TEAE: Urinalysis NEC [1]: 10 (4%) n (%)
TEAE: Urinary Tract Infection NOS [1]: 16 (6%) n (%)
TEAE: Urinary Tract Infections [1]: 17 (7%) n (%)
TEAE: Urine Analysis Abnormal NOS [1]: 1 (<1%) n (%)
TEAE: Urine Bilirubin Increased [1]: 0 n (%)
TEAE: Urine Ketone Body Present [1]: 3 (1%) n (%)
TEAE: Urine Leukocyte Esterase Positive [1]: 3 (1%) n (%)
TEAE: Urobilin Urine Present [1]: 1 (<1%) n (%)
TEAE: Vascular Auscultatory Investigations [1]: 0 n (%)
TEAE: Vascular Tests NEC (Incl Blood Pressure) [1]: 3 (1%) n (%)
TEAE: Vasovagal Attack [1]: 1 (<1%) n (%)
TEAE: Viral Infection NOS [1]: 2 (<1%) n (%)
TEAE: Viral Infections NEC [1]: 7 (3%) n (%)
TEAE: Vomiting NOS [1]: 9 (4%) n (%)
TEAE: Weight Decreased [1]: 1 (<1%) n (%)
TEAE: Weight Increased [1]: 6 (2%) n (%)
TEAE: White Blood Cell Analyses [1]: 4 (2%) n (%)
TEAE: White Blood Cell Count Decreased [1]: 1 (<1%) n (%)
TEAE: White Blood Cells Urine Positive [1]: 1 (<1%) n (%)
TEAE leading to permanent discontinuation: Abdominal Distension [2]: 2 (<1%) n (%)
TEAE leading to permanent discontinuation: Abdominal Pain Aggravated [2]: 1 (<1%) n (%)
TEAE leading to permanent discontinuation: Abdominal Pain Lower [2]: 0 n (%)
TEAE leading to permanent discontinuation: Abdominal Pain NOS [2]: 5 (2%) n (%)
TEAE leading to permanent discontinuation: Abdominal Pain Upper [2]: 1 (<1%) n (%)
TEAE leading to permanent discontinuation: Alanine Aminotransferase Increased [2]: 1 (<1%) n (%)
TEAE leading to permanent discontinuation: Angina Pectoris [2]: 1 (<1%) n (%)
TEAE leading to permanent discontinuation: Appendicitis [2]: 1 (<1%) n (%)
TEAE leading to permanent discontinuation: Asthma Aggravated [2]: 1 (<1%) n (%)
TEAE leading to permanent discontinuation: Asthma NOS [2]: 1 (<1%) n (%)
TEAE leading to permanent discontinuation: Back Pain [2]: 3 (1%) n (%)
TEAE leading to permanent discontinuation: Bladder Prolapse [2]: 0 n (%)
TEAE leading to permanent discontinuation: Blood Bilirubin Increased [2]: 1 (<1%) n (%)
TEAE leading to permanent discontinuation: Blood Pressure Increased [2]: 1 (<1%) n (%)
TEAE leading to permanent discontinuation: Blood Urine Present [2]: 1 (<1%) n (%)
TEAE leading to permanent discontinuation: Bone Neoplasm Malignant [2]: 1 (<1%) n (%)
TEAE leading to permanent discontinuation: Cardiac Disorders [2]: 1 (<1%) n (%)
TEAE leading to permanent discontinuation: Chest Discomfort [2]: 0 n (%)
TEAE leading to permanent discontinuation: Chest Pain [2]: 0 n (%)
TEAE leading to permanent discontinuation: Chest Wall Pain [2]: 0 n (%)
TEAE leading to permanent discontinuation: Colitis Ischaemic [2]: 0 n (%)
TEAE leading to permanent discontinuation: Constipation [2]: 7 (3%) n (%)
TEAE leading to permanent discontinuation: Cough [2]: 0 n (%)
TEAE leading to permanent discontinuation: Dehydration [2]: 1 (<1%) n (%)
TEAE leading to permanent discontinuation: Depression [2]: 0 n (%)
TEAE leading to permanent discontinuation: Diarrhoea Aggravated [2]: 1 (<1%) n (%)
TEAE leading to permanent discontinuation: Diarrhoea Haemorrhagic [2]: 0 n (%)
TEAE leading to permanent discontinuation: Diarrhoea NOS [2]: 4 (2%) n (%)
TEAE leading to permanent discontinuation: Dizziness [2]: 0 n (%)
TEAE leading to permanent discontinuation: Dyspepsia [2]: 1 (<1%) n (%)
TEAE leading to permanent discontinuation: Ear and Labyrinth Disorders [2]: 1 (<1%) n (%)
TEAE leading to permanent discontinuation: Epigastric Discomfort [2]: 0 n (%)
TEAE leading to permanent discontinuation: Eructation [2]: 1 (<1%) n (%)
TEAE leading to permanent discontinuation: Eye Disorders [2]: 0 n (%)
TEAE leading to permanent discontinuation: Faecal Abnormality NOS [2]: 1 (<1%) n (%)
TEAE leading to permanent discontinuation: Faecal Impaction [2]: 0 n (%)
TEAE leading to permanent discontinuation: Faecal Incontinence [2]: 0 n (%)
TEAE leading to permanent discontinuation: Faeces Hard [2]: 1 (<1%) n (%)
TEAE leading to permanent discontinuation: Fatigue [2]: 3 (1%) n (%)
TEAE leading to permanent discontinuation: Fibroma NOS [2]: 0 n (%)
TEAE leading to permanent discontinuation: Flatulence [2]: 2 (<1%) n (%)
TEAE leading to permanent discontinuation: Gastric Irritation [2]: 1 (<1%) n (%)
TEAE leading to permanent discontinuation: Gastrointestinal Disorders [2]: 24 (9%) n (%)
TEAE leading to permanent discontinuation: Gastrointestinal Motility Disorder NOS [2]: 0 n (%)
TEAE leading to permanent discontinuation: General Disorders and Administration Site Conditions [2]: 3 (1%) n (%)
TEAE leading to permanent discontinuation: Haemorrhoidal Haemorrhage [2]: 0 n (%)
TEAE leading to permanent discontinuation: Hallucination NOS [2]: 0 n (%)
TEAE leading to permanent discontinuation: Hallucination, Auditory [2]: 0 n (%)
TEAE leading to permanent discontinuation: Headache NOS [2]: 1 (<1%) n (%)
TEAE leading to permanent discontinuation: Headache NOS Aggravated [2]: 1 (<1%) n (%)
TEAE leading to permanent discontinuation: Heart Rate Increased [2]: 1 (<1%) n (%)
TEAE leading to permanent discontinuation: Hepatobiliary Disorders [2]: 1 (<1%) n (%)
TEAE leading to permanent discontinuation: Hepatosplenomegaly NOS [2]: 1 (<1%) n (%)
TEAE leading to permanent discontinuation: Hiatus Hernia [2]: 1 (<1%) n (%)
TEAE leading to permanent discontinuation: Investigations [2]: 5 (2%) n (%)
TEAE leading to permanent discontinuation: Irritable Bowel Syndrome Aggravated [2]: 1 (<1%) n (%)
TEAE leading to permanent discontinuation: Lethargy [2]: 0 n (%)
TEAE leading to permanent discontinuation: Metabolism and Nutrition Disorders [2]: 1 (<1%) n (%)
TEAE leading to permanent discontinuation: Migraine NOS [2]: 1 (<1%) n (%)
TEAE leading to permanent discontinuation: Muscle Cramps [2]: 2 (<1%) n (%)
TEAE leading to permanent discontinuation: Musculoskeletal and Connective Tissue Disorders [2]: 5 (2%) n (%)
TEAE leading to permanent discontinuation: Nausea [2]: 3 (1%) n (%)
TEAE leading to permanent discontinuation: Neoplasms Benign, Malignant and Unspecified (Incl Cysts and Polyps) [2]: 2 (<1%) n (%)
TEAE leading to permanent discontinuation: Nervous System Disorders [2]: 4 (2%) n (%)
TEAE leading to permanent discontinuation: Pregnancy, Puerperium and Perinatal Conditions [2]: 1 (<1%) n (%)
TEAE leading to permanent discontinuation: Pruritus NOS [2]: 1 (<1%) n (%)
TEAE leading to permanent discontinuation: Psychiatric Disorders [2]: 0 n (%)
TEAE leading to permanent discontinuation: Psychotic Disorder NOS [2]: 0 n (%)
TEAE leading to permanent discontinuation: Rash Macular [2]: 0 n (%)
TEAE leading to permanent discontinuation: Rash NOS [2]: 0 n (%)
TEAE leading to permanent discontinuation: Rectal Disorder NOS [2]: 0 n (%)
TEAE leading to permanent discontinuation: Rectal Haemorrhage [2]: 2 (<1%) n (%)
TEAE leading to permanent discontinuation: Rectal Tenesmus [2]: 0 n (%)
TEAE leading to permanent discontinuation: Renal and Urinary Disorders [2]: 0 n (%)
TEAE leading to permanent discontinuation: Respiratory, Thoracic and Mediastinal Disorders [2]: 2 (<1%) n (%)
TEAE leading to permanent discontinuation: Skin and Subcutaneous Tissue Disorders [2]: 1 (<1%) n (%)
TEAE leading to permanent discontinuation: Somnolence [2]: 1 (<1%) n (%)
TEAE leading to permanent discontinuation: Stomach Discomfort [2]: 0 n (%)
TEAE leading to permanent discontinuation: Suicidal Ideation [2]: 0 n (%)
TEAE leading to permanent discontinuation: Urticaria NOS [2]: 0 n (%)
TEAE leading to permanent discontinuation: Vertigo [2]: 1 (<1%) n (%)
TEAE leading to permanent discontinuation: Visual Acuity Reduced [2]: 0 n (%)
TEAE leading to permanent discontinuation: Vomiting NOS [2]: 1 (<1%) n (%)
TEAE leading to permanent discontinuation: White Blood Cells Urine Positive [2]: 1 (<1%) n (%)
Total Number of Subjects with at Least One TEAE Leading to Discontinuation of Study Medication [2]: 33 (13%) n (%)
TEAE leading to permanent discontinuation: Benign Ovarian Tumour* [3]: 0 n (%)
TEAE leading to permanent discontinuation: Breast Cancer NOS* [3]: 0 n (%)
TEAE leading to permanent discontinuation: Ovarian Cancer NOS* [3]: 1 (<1%) n (%)
TEAE leading to permanent discontinuation: Ovarian Cystadenofibroma* [3]: 0 n (%)
TEAE leading to permanent discontinuation: Pregnancy NOS* [3]: 1 (<1%) n (%)
TEAE: Female Reproductive Tract Infections* [4]: 2 (1%) n (%)
TEAE: Prostate Examination Abnormal* [4]: 1 (1%) n (%)
TEAE: Smear Cervix Abnormal* [4]: 1 (<1%) n (%)
TEAE: Vaginal Candidiasis* [4]: 1 (<1%) n (%)
TEAE: Vaginitis Bacterial NOS* [4]: 1 (<1%) n (%)
TEAE: Vaginitis* [4]: 1 (<1%) n (%)
TEAE: Vaginosis Fungal NOS* [4]: 1 (<1%) n (%)
TEAE: Abdominal Discomfort (Overall): 1 (<1%) n (%)
TEAE: Abdominal Distension (Overall): 15 (3%) n (%)
TEAE: Abdominal Pain Aggravated (Overall): 4 (<1%) n (%)
TEAE: Abdominal Pain Lower (Overall): 10 (2%) n (%)
TEAE: Abdominal Pain NOS (Overall): 35 (7%) n (%)
TEAE: Abdominal Pain Upper (Overall): 11 (2%) n (%)
TEAE: Abdominal Rebound Tenderness (Overall): 1 (<1%) n (%)
TEAE: Abdominal Tenderness (Overall): 13 (2%) n (%)
TEAE: Abdominal Therapeutic Procedures NEC (Overall): 1 (<1%) n (%)
TEAE: Abdominoplasty (Overall): 1 (<1%) n (%)
TEAE: Abnormal Chest Sounds NOS (Overall): 1 (<1%) n (%)
TEAE: Abnormal Reflexes (Overall): 1 (<1%) n (%)
TEAE: Acne NOS (Overall): 1 (<1%) n (%)
TEAE: Acnes (Overall): 1 (<1%) n (%)
TEAE: Acquired Hypothyroidism (Overall): 2 (<1%) n (%)
TEAE: Acrochordons (Overall): 1 (<1%) n (%)
TEAE: Adenomyosis* (Overall): 1 (<1%) n (%)
TEAE: Age Related Issues (Overall): 1 (<1%) n (%)
TEAE: Alanine Aminotransferase Increased (Overall): 14 (3%) n (%)
TEAE: Allergic Conditions NEC (Overall): 3 (<1%) n (%)
TEAE: Allergies to Foods, Food Additives, Drugs and Other Chemicals (Overall): 2 (<1%) n (%)
TEAE: Allergy to Insect Sting (Overall): 1 (<1%) n (%)
TEAE: Alopecia (Overall): 1 (<1%) n (%)
TEAE: Alopecias (Overall): 1 (<1%) n (%)
TEAE: Amenorrhoea NOS* (Overall): 1 (<1%) n (%)
TEAE: Anaemia NOS (Overall): 1 (<1%) n (%)
TEAE: Anaemias NEC (Overall): 1 (<1%) n (%)
TEAE: Anal and Rectal Disorders NEC (Overall): 1 (<1%) n (%)
TEAE: Anal and Rectal Pains (Overall): 4 (<1%) n (%)
TEAE: Anal and Rectal Signs and Symptoms (Overall): 4 (<1%) n (%)
TEAE: Angina Pectoris (Overall): 3 (<1%) n (%)
TEAE: Animal Bite (Overall): 1 (<1%) n (%)
TEAE: Anorexia (Overall): 2 (<1%) n (%)
TEAE: Anxiety (Overall): 8 (1%) n (%)
TEAE: Anxiety Aggravated (Overall): 3 (<1%) n (%)
TEAE: Anxiety Symptoms (Overall): 12 (2%) n (%)
TEAE: Apocrine and Eccrine Gland Disorders (Overall): 3 (<1%) n (%)
TEAE: Appendicitis (Overall): 1 (<1%) n (%)
TEAE: Appetite Disorders (Overall): 2 (<1%) n (%)
TEAE: Arrhythmia NOS (Overall): 1 (<1%) n (%)
TEAE: Arthralgia (Overall): 13 (2%) n (%)
TEAE: Arthritis NOS (Overall): 3 (<1%) n (%)
TEAE: Arthritis NOS Aggravated (Overall): 1 (<1%) n (%)
TEAE: Arthropathies NEC (Overall): 6 (1%) n (%)
TEAE: Arthropod Bite (Overall): 2 (<1%) n (%)
TEAE: Arthropod Sting (Overall): 1 (<1%) n (%)
TEAE: Aspartate Aminotransferase Increased (Overall): 7 (1%) n (%)
TEAE: Asthenic Conditions (Overall): 15 (3%) n (%)
TEAE: Asthma Aggravated (Overall): 1 (<1%) n (%)
TEAE: Asthma NOS (Overall): 2 (<1%) n (%)
